Measurements from ChEMBL document CHEMBL3593229, “Identification of a potent 5-phenyl-thiazol-2-ylamine-based inhibitor of FLT3 with activity against drug resistance-conferring point mutations” (Eur J Med Chem, 2015).
Activity calls are given as the source filed them. The rule behind the calls is not given here.

What was measured:
[1] = molecular target: Non-receptor tyrosine-protein kinase TYK2 (Homo sapiens) (UniProt P29597); test: Inhibition of human TYK2 at 0.1 uM relative to control
[2] = tested on: Receptor-type tyrosine-protein kinase FLT3 (Homo sapiens), P36888 [D835Y]; test: Inhibition of human FLT3 D835Y mutant at 0.1 uM relative to control
[3] = molecular target: Proto-oncogene tyrosine-protein kinase receptor Ret (Homo sapiens) (UniProt P07949); test: Inhibition of human RET at 0.1 uM relative to control
[4] = molecular target: Macrophage-stimulating protein receptor (Homo sapiens) (UniProt Q04912); test: Inhibition of human RON at 0.1 uM relative to control
[5] = molecular target: T1, Receptor-type tyrosine-protein kinase FLT3 (Homo sapiens, UniProt P36888); test: biochemical; type: cell-based, Sf9
T1 sequence (P36888 whole entry): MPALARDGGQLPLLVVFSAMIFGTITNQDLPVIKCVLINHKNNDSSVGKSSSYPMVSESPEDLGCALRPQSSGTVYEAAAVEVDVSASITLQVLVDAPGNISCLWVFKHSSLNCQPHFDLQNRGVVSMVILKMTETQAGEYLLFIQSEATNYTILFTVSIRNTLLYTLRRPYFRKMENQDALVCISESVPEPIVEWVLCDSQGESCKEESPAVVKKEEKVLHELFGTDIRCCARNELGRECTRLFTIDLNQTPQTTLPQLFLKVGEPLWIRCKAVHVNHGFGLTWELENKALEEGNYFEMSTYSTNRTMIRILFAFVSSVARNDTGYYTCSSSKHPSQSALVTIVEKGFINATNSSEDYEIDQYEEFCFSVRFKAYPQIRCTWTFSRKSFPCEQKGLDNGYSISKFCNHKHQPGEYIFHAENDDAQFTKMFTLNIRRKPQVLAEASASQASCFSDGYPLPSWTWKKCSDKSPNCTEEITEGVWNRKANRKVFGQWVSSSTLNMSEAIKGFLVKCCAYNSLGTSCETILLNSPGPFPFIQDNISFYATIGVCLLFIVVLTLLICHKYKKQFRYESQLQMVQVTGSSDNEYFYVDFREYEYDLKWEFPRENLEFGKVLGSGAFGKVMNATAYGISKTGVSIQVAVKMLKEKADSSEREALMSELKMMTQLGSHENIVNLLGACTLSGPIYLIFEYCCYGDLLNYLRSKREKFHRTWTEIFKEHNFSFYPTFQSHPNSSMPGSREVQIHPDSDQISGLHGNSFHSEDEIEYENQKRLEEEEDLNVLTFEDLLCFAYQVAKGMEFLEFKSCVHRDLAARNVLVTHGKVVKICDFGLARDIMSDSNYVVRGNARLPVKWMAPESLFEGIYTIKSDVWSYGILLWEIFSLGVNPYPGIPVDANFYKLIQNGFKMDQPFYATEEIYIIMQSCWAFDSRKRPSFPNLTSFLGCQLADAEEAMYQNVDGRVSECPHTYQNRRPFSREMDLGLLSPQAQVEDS
Description: Inhibition of wild type GST-tagged FLT3 kinase domain (Y567 to S993) (unknown origin) expressed in baculovirus infected insect Sf9 cells using Her2 peptide as substrate after 4 hrs by Kinase-Glo assay

[6] = molecular target: Insulin-like growth factor 1 receptor (Homo sapiens) (UniProt P08069); test: Inhibition of human IGF1R at 0.1 uM relative to control
[7] = molecular target: Tyrosine-protein kinase CSK (Homo sapiens) (UniProt P41240); test: Inhibition of human CSK at 0.1 uM relative to control
[8] = molecular target: Inhibitor of nuclear factor kappa-B kinase subunit epsilon (Homo sapiens) (UniProt Q14164); test: Inhibition of human IKKepsilon at 0.1 uM relative to control
[9] = molecular target: AMP-activated protein kinase, AMPK (Homo sapiens) (UniProt P54646+O43741+P54619+Q9UGJ0+Q9Y478+Q13131+Q9UGI9); test: Inhibition of human AMPK A1/B1/G1 at 0.1 uM relative to control; type: protein-complex assay
[10] = molecular target: Aurora kinase A (Homo sapiens) (UniProt O14965); test: Inhibition of human AURKA at 0.1 uM relative to control
[11] = molecular target: Serine/threonine-protein kinase MRCK alpha (Homo sapiens) (UniProt Q5VT25); test: Inhibition of human MRCKA at 0.1 uM relative to control
animal or person = conditions: Mus musculus, 32D, po, read-out: TGI
[12] = Oral bioavailability in Sprague-Dawley rat at 10 mg/kg; type: ADME, organism-based; conditions: in vivo
[13] = tested on: Receptor-type tyrosine-protein kinase FLT3 (Homo sapiens), P36888 [D835V]
[14] = molecular target: Dual specificity mitogen-activated protein kinase kinase 1 (Homo sapiens) (UniProt Q02750); test: Inhibition of human MEK1 at 0.1 uM relative to control
[15] = molecular target: Mitogen-activated protein kinase 14 (Homo sapiens) (UniProt Q16539); test: Inhibition of human MAPK14 at 0.1 uM relative to control
[16] = molecular target: Ribosomal protein S6 kinase alpha-5 (Homo sapiens) (UniProt O75582); test: Inhibition of human MSK1 at 0.1 uM relative to control
[17] = molecular target: Receptor-type tyrosine-protein kinase FLT3 (Homo sapiens) (UniProt P36888); test: Inhibition of human FLT3 at 0.1 uM relative to control
[18] = Plasma clearance in ICR mouse at 2 mg/kg, iv; type: ADME, organism-based
[19] = molecular target: Tyrosine-protein kinase Lyn (Homo sapiens) (UniProt P07948); test: Inhibition of human LYNA at 0.1 uM relative to control
MV4-11 = test: Antitumor activity against human MV4-11 cells xenografted in nude mouse assessed as tumor growth inhibition at 25 mg/kg, po qd administered on day 8 to 12 measured during compound dosing; type: functional, organism-based
[20] = molecular target: Macrophage colony-stimulating factor 1 receptor (Homo sapiens) (UniProt P07333); test: Inhibition of human CSF1R at 0.1 uM relative to control
[21] = tested on: Tyrosine-protein kinase ABL1 (Homo sapiens), P00519 [T315I]; test: Inhibition of human ABL1 T315I mutant at 0.1 uM relative to control
[22] = molecular target: Serine/threonine-protein kinase Nek2 (Homo sapiens) (UniProt P51955); test: Inhibition of human NEK2 at 0.1 uM relative to control
[23] = molecular target: Tyrosine-protein kinase Blk (Homo sapiens) (UniProt P51451); test: Inhibition of human BLK at 0.1 uM relative to control
[24] = molecular target: Receptor tyrosine-protein kinase erbB-2 (Homo sapiens) (UniProt P04626); test: Inhibition of human HER2 at 0.1 uM relative to control
[25] = molecular target: Angiopoietin-1 receptor (Homo sapiens) (UniProt Q02763); test: Inhibition of human TEK at 0.1 uM relative to control
U-937 = test: cells; type: functional; conditions: Homo sapiens, U-937, 72 h
Description: Cytotoxicity against FLT3-deficient human U937 cells assessed as cell growth inhibition after 72 hrs by MTS assay

[26] = molecular target: Tyrosine-protein kinase HCK (Homo sapiens) (UniProt P08631); test: Inhibition of human HCK at 0.1 uM relative to control
Chain of Tyrosine-protein kinase HCK (Homo sapiens) (P08631 2-526 limits assumed): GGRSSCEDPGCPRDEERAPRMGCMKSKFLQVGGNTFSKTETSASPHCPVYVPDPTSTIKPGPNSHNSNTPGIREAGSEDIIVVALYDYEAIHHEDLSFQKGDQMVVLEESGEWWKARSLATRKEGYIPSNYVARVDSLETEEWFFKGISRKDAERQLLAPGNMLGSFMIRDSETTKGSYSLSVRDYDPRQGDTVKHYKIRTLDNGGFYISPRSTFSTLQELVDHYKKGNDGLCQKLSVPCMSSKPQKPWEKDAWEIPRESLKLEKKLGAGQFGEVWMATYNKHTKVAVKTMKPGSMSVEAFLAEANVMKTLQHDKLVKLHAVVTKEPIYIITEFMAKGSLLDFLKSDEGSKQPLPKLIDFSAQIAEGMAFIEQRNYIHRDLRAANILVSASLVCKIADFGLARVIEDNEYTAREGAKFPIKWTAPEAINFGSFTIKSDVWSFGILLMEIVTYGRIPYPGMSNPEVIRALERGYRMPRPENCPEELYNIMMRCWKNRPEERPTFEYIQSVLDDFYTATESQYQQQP

Chain of Non-receptor tyrosine-protein kinase TYK2 (Homo sapiens) (P29597 whole entry): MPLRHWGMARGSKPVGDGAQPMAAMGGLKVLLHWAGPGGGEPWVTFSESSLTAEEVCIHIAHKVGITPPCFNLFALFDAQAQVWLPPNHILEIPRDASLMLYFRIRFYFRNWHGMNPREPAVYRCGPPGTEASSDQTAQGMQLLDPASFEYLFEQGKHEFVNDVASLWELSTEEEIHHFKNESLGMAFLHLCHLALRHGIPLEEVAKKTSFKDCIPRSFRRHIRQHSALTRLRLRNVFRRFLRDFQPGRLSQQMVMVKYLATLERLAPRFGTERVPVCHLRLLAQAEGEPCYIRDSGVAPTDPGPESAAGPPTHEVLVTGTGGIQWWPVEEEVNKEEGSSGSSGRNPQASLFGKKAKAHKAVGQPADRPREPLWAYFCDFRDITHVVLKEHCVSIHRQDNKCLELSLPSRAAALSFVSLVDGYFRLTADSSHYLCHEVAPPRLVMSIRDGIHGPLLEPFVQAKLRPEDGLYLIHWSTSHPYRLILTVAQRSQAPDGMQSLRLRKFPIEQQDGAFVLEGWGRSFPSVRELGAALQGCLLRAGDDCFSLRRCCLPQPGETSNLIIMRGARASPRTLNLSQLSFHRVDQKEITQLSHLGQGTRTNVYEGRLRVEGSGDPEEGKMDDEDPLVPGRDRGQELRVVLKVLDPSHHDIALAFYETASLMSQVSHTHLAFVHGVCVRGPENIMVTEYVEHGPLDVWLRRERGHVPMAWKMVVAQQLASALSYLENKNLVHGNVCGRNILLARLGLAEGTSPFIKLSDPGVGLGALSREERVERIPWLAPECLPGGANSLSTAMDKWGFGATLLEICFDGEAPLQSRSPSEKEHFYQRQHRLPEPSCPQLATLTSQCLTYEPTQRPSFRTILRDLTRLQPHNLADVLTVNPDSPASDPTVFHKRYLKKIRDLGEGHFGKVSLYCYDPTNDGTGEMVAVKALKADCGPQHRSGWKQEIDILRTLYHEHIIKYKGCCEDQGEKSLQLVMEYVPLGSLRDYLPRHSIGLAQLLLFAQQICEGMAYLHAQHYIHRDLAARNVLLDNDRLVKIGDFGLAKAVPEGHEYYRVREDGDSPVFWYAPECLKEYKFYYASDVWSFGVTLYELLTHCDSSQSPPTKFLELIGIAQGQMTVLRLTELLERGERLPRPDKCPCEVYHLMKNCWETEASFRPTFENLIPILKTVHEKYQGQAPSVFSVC
Chain of Macrophage colony-stimulating factor 1 receptor (Homo sapiens) (P07333 whole entry): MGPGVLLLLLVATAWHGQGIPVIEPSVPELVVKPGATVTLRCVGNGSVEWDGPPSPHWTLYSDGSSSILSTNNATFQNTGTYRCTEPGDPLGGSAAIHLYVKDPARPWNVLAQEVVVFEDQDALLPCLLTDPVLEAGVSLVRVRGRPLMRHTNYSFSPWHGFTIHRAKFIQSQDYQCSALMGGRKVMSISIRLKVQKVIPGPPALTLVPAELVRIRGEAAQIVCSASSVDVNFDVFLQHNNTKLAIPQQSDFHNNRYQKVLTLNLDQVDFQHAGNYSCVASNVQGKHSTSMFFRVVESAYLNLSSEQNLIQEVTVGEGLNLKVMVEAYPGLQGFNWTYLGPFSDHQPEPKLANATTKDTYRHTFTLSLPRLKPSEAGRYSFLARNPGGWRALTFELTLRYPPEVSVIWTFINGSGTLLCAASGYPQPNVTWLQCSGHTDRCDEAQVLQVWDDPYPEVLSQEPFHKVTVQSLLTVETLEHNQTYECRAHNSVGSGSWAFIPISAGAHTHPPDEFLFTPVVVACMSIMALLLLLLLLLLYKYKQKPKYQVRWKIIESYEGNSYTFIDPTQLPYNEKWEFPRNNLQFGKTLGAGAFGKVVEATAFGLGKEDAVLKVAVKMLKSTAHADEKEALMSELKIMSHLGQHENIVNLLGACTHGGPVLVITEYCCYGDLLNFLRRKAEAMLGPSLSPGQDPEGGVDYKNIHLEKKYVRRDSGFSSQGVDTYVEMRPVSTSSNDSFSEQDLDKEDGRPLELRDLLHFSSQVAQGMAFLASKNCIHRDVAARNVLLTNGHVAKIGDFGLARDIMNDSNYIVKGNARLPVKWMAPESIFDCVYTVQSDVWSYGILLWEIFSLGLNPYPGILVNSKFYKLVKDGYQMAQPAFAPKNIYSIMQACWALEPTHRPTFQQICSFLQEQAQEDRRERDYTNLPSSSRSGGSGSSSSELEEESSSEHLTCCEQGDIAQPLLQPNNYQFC
Chain of Tyrosine-protein kinase CSK (Homo sapiens) (P41240 2-450 limits assumed): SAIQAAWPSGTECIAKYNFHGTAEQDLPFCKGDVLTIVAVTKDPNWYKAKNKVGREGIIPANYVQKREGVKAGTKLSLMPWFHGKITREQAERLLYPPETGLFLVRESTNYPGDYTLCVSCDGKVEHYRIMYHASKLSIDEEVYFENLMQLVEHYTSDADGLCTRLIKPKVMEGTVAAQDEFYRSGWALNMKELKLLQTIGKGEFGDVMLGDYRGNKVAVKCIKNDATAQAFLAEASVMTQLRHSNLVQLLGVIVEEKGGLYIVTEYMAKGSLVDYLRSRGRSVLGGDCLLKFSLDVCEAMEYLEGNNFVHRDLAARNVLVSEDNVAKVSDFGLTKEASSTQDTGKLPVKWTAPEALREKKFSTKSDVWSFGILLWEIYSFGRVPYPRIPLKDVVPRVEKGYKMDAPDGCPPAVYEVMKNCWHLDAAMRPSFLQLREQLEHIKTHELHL
Chain of Ribosomal protein S6 kinase alpha-5 (Homo sapiens) (O75582 whole entry, looked up): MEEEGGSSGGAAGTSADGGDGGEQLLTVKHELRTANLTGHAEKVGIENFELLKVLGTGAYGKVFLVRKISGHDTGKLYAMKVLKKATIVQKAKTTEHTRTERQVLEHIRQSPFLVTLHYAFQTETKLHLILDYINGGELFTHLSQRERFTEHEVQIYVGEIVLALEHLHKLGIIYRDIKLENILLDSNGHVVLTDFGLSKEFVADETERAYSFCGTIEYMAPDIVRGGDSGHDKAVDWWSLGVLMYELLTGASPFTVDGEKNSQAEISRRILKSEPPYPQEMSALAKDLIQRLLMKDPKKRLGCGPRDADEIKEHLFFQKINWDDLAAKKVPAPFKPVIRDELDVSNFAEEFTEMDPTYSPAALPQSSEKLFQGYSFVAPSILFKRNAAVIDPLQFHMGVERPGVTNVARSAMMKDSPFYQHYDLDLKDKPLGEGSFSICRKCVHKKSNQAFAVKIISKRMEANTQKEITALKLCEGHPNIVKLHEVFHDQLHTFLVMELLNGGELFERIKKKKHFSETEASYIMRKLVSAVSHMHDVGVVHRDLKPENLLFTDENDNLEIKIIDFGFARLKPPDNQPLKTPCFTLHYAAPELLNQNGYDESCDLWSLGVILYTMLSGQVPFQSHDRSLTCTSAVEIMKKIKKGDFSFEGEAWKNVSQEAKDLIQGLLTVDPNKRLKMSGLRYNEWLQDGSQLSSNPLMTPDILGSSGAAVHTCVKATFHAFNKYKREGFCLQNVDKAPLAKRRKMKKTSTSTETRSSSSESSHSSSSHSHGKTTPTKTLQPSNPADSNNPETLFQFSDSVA
Chain of Proto-oncogene tyrosine-protein kinase receptor Ret (Homo sapiens) (P07949 whole entry): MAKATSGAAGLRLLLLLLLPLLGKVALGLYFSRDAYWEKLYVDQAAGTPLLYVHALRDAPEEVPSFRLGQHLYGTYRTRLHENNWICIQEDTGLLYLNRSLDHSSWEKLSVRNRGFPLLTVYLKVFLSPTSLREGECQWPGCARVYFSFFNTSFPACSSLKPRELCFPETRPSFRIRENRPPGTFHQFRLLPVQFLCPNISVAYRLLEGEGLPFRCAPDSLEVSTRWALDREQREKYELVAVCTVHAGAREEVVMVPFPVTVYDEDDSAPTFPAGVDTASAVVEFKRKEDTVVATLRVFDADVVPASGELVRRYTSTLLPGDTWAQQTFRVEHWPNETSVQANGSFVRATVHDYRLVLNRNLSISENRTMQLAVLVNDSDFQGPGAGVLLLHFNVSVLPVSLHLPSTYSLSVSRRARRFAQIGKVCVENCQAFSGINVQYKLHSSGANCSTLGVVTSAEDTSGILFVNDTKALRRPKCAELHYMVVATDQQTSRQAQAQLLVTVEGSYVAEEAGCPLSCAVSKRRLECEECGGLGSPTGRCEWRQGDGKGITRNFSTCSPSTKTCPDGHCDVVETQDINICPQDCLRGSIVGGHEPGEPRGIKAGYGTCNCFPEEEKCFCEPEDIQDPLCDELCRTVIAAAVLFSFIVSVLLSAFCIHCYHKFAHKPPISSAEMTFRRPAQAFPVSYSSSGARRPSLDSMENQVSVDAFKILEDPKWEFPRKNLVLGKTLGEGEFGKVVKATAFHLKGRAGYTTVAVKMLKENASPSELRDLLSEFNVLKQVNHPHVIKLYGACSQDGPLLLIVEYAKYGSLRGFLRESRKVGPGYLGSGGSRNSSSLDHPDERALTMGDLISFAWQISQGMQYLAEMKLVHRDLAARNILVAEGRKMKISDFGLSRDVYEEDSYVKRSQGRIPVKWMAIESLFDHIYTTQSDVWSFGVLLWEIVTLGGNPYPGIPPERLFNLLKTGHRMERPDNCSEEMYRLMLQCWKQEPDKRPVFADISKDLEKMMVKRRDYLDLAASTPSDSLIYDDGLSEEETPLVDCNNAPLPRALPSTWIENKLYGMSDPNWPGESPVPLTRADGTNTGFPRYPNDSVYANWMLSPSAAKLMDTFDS

**Q.** Which inhibition [1] does the source give for `CCc1cc(NC(=O)Nc2ccc(-c3cnc(Nc4cc(N5CCN(CC)CC5)nc(C)n4)s3)cc2)no1` here?
**A.** 21%

**Q.** And the inhibition [2]?
**A.** 87%

**Q.** What about the inhibition [3] of the same compound?
**A.** 95%

**Q.** What about the inhibition [4] of the same compound?
**A.** -3%

**Q.** And the IC50 [5]?
**A.** 38 nM

**Q.** What about the inhibition [6] of the same compound?
**A.** 16%

**Q.** What about the inhibition [7] of the same compound?
**A.** 23%

**Q.** What about the inhibition [8] of the same compound?
**A.** 18%

**Q.** What about the inhibition [9] of the same compound?
**A.** 16%

**Q.** What about the inhibition [10] of the same compound?
**A.** 96%

**Q.** And the inhibition [11]?
**A.** 0%

**Q.** And the inhibition in vivo at 10 mg/kg/day (animal or person)?
**A.** 68%

**Q.** And the bioavailability [12]?
**A.** 20%

**Q.** And the GI50 [13]?
**A.** 4 nM

**Q.** And the inhibition [14]?
**A.** 41%

**Q.** And the inhibition [15]?
**A.** 10%

**Q.** What about the inhibition [16] of the same compound?
**A.** 0%

**Q.** What about the inhibition [17] of the same compound?
**A.** 98%

**Q.** And the clearance [18]?
**A.** 82 mL/min/kg

**Q.** And the inhibition [19]?
**A.** 96%

**Q.** What about the TGI (MV4-11) of the same compound?
**A.** Active

**Q.** What about the inhibition [20] of the same compound?
**A.** 94%

**Q.** What about the inhibition [21] of the same compound?
**A.** 51%

**Q.** What about the inhibition [22] of the same compound?
**A.** -4%

**Q.** And the inhibition [23]?
**A.** 78%

**Q.** What about the inhibition [24] of the same compound?
**A.** 0%

**Q.** And the inhibition [25]?
**A.** 61%

**Q.** And the GI50 (U-937)?
**A.** 1100 nM

**Q.** And the inhibition [26]?
**A.** 45%
